Tests used:
Type in all cases: in vivo, rat
WAG/Rij rats = test: EPM after 7 days oral gavage, WAG/Rij rats, Study 3; conditions: 7 days gavage ~2.5 g/kg b.w./day
Experimental: Generally, exogenous ketone supplementation was tested by adding to food and feeding chronically for 83 days in SPD rats and administering sub-chronically for 7 days in both rat models by daily intragastric gavage bolus, followed by assessment of anxiety measures on EPM. The groups included standard diet (SD) or SD+ketone supplementation.
EPM (Coulbourn Instruments) was used to assess anxiety-related behavior of the rats after 83 days of chronic feeding or after 7 days of oral gavage. EPM experiments were carried out under non-stress conditions (in dimly lit and quiet room) between 12.00 and 14.00 hours.
The rats were transferred in their home cage to the experimental room 30 min prior to beginning the experiment. Briefly, rats were placed in the intersection of the four arms of the EPM, facing the open arm opposite to where the experimenter was and their behavior was recorded for 5 minutes. The amount of time spent and number of entries made on the open arms, closed arms and the center zones were video recorded. Latency to entry into the closed arms and the distance travelled in each zones was also measured in chronically treated SPD rats. […] At the end of the 5-minute test, the rats were removed from the maze and placed back into their home cage. The maze was cleaned with 70% alcohol and after it with tap water and dried with paper towel between rats. […]

[1] = Blood βHB and glucose compared between the two animal models, Study 3; conditions: after sub-chronic ketone supplementation (7 days; ~2.5 vs ~5 g/kg b.w./day)
From the text: (§1) Results were considered significant when p<0.05.

[2] = Body weight, SPD rats, Study 3; conditions: compared to control
Experimental: The body weight of all animals was recorded before the first ketone treatment (before) and on the last day of the ketone treatment (after).
as §1

[3] = Blood βHB and glucose ~40 min after single dose, 1 year old SPD rats, Study 2; conditions: right after 5 min EPM test, compared to control group
Experimental: One year old SPD rats were gavaged and EPM test was performed 30 min after administration. Treatment groups BD, KE, KEMCT, KSMCT, KEKS.
Another study was carried out using substantially similar methodologies and procedures as in Study 1, specifically using the EPM test to evaluate anxiety-related behavior in 1-year old SD rats when administered ketone supplementation versus control.

In the case of `CC(=O)CC(=O)OCCC(C)OC(=O)CC(C)=O` (stereo not drawn) [KE, 1,3-butanediol-acetoacetate diester], the “Entries to open arms” value (WAG/Rij rats; compared to control) is reported as “less entries”, the “Time spent in the center” value (WAG/Rij rats; compared to control (SD)) is reported as “more time” and the “βHB levels in WAG/Rij rats compared to SPD rats” value [1] is reported as “Higher”. The Body weight ([2]; after 7 days of treatment) was “lower”, the Body weight ([2]; after chronic feeding) was “lower” and the Blood glucose level [3] was “significantly lower”.
